Assay results: US9862712B2, “Benzimidazole based EGFR inhibitors” (COUNCIL OF SCIENTIFIC & INDUSTRIAL RESEARCH, priority 2014, dated 2018)
Entries after “also recorded” stand apart in the source; their conditions may differ.

Legend:
[1] = test system: U87MG Cell line (Glioblastoma cell line); assay: MTT cell proliferation assay, U87MG Cell line; type: cell-based; conditions: for viability at 0.01 µM / viability at 0.1 µM / viability at 2.5 µM / viability at 5 µM / viability at 10 µM: Homo sapiens, U-87 MG, U87MG, 72 h, MTT
Procedure: (§1) 1. Protocol Followed for Anti Cancer Activity and Results, Cell Proliferation Assays: Cell lines used herein were purchased from NCCS (National Center for Cell Sciences) Pune, India. Invitro Activity was performed in NCL (National Chemical Laboratory) Pune. Each cell line was plated in 96-well microtiter plates (10,000 cells per well), and serial dilutions of indicated compounds were added. At the end of the incubation period (72 h at 37° C.), cell viability was determined by a tetrazolium dye, MTT (3-(4,5-dimethylthiazol-2-yl)-2,5-diphenyl tetrazolium bromide) (Promega, USA). The formazan crystals were dissolved in DMSO, and the absorbance at 600 nm was recorded using an ELISA plate reader. IC50 values were calculated using nonlinear regression and defined as the concentration needed for a 50% reduction in absorbance of treated versus untreated control cells.
By using the above procedure, the compounds of the invention were tested on U87MG Cell line (glioblastoma cell line) and the results obtained are presented below in table 8, Refer FIG. 5.

MDA-MB-436 Cell line = assay: MTT cell proliferation assay, MDA-MB-436 Cell line; type: cell-based; conditions: for viability at 0.01 µM / viability at 0.1 µM / viability at 2.5 µM / viability at 5 µM / viability at 10 µM: Homo sapiens, 72 h, MTT; for viability at 0.01 µM: MDA-MB-436, 0.01 μM; for viability at 0.1 µM: MDA-MB-436, 0.1 μM; for viability at 2.5 µM: MDA-MB-436, 2.5 μM; for viability at 5 µM: MDA-MB-436, 5 μM; for viability at 10 µM: MDA-MB-436, 10 μM
Procedure: as §1
By using the above procedure, the compounds of the invention were tested on MDA-MB-436 Cell line and the results obtained are presented below in table 7, Refer FIG. 4.

MCF-7 Cell line = assay: MTT cell proliferation assay, MCF-7 Cell line; type: cell-based; conditions: for viability at 0.01 µM / viability at 0.1 µM / viability at 2.5 µM / viability at 5 µM / viability at 10 µM: Homo sapiens, MCF7, 72 h, MTT; for viability at 0.01 µM: MCF-7, 0.01 μM; for viability at 0.1 µM: MCF-7, 0.1 μM; for viability at 2.5 µM: MCF-7, 2.5 μM; for viability at 5 µM: MCF-7, 5 μM; for viability at 10 µM: MCF-7, 10 μM
Procedure: as §1
Table 4 indicates anticancer activity against A549 Cell line. The Gefitinib was used as standard and % cell Viable was measured compared to control. The procedure used was MTT assay as mentioned. […] By using the above procedure, the compounds of the invention were tested on MCF-7 Cell line and the results obtained are presented below in table 5, Refer FIG. 2.

HOP-62 Cell line = assay: MTT cell proliferation assay, HOP-62 Cell line; type: cell-based; conditions: for viability at 0.01 µM / viability at 0.1 µM / viability at 2.5 µM / viability at 5 µM / viability at 10 µM: Homo sapiens, 72 h, MTT; for viability at 0.01 µM: HOP-62, 0.01 μM; for viability at 0.1 µM: HOP-62, 0.1 μM; for viability at 2.5 µM: HOP-62, 2.5 μM; for viability at 5 µM: HOP-62, 5 μM; for viability at 10 µM: HOP-62, 10 μM
Procedure: as §1
By using the above procedure, the compounds of the invention were tested on HOP-62 Cell line and the results obtained are presented below in table 6, Refer FIG. 3.

Log P (Table 3) = type: physicochemical; conditions: no method given
[2] = test system: A549 Cell line (Lung Cancer Cell line); assay: MTT cell proliferation assay, A549 Cell line; type: cell-based, human; conditions: for viability at 0.01 µM / viability at 0.1 µM / viability at 2.5 µM / viability at 5 µM / viability at 10 µM: Homo sapiens, 72 h, MTT; for viability at 0.01 µM: A549, 0.01 μM; for viability at 0.1 µM: A549, 0.1 μM; for viability at 2.5 µM: A549, 2.5 μM; for viability at 5 µM: A549, 5 μM; for viability at 10 µM: A549, 10 μM
Procedure: as §1
By using the above procedure, the compounds of the invention were tested on A549 Cell line and the results obtained are presented below in table 4, Refer FIG. 1.

[3] = compared among 15 molecules and with Gefitinib, listed as M1

Structure (SMILES)	viability at 0.01 µM [1]	viability at 0.1 µM [1]	viability at 2.5 µM [1]	viability at 5 µM [1]	viability at 10 µM [1]	viability at 0.01 µM (MDA-MB-436 Cell line)	viability at 0.1 µM (MDA-MB-436 Cell line)	viability at 2.5 µM (MDA-MB-436 Cell line)	viability at 5 µM (MDA-MB-436 Cell line)	viability at 10 µM (MDA-MB-436 Cell line)	viability at 0.01 µM (MCF-7 Cell line)	viability at 0.1 µM (MCF-7 Cell line)	viability at 2.5 µM (MCF-7 Cell line)	viability at 5 µM (MCF-7 Cell line)	viability at 10 µM (MCF-7 Cell line)	viability at 0.01 µM (HOP-62 Cell line)	viability at 0.1 µM (HOP-62 Cell line)	viability at 2.5 µM (HOP-62 Cell line)	viability at 5 µM (HOP-62 Cell line)	viability at 10 µM (HOP-62 Cell line)	further results
Nc1nc(Nc2ccccc2)sc1-c1nc2ccccc2[nH]1 [Molecule S4-M1, 5-(1H-benzo[d]imidazol-2-yl)-N^2-phenylthiazole-2,4-diamine]	40.8%	32.4%	23.1%	14.6%	8.94%	82.8%	70.4%	67.1%	54.6%	40.9%	69.8%	60.4%	49.1%	42.6%	30.9%	54.1%	42.1%	34.1%	22.1%	12.9%	anticancer activity against U87-MG Cell line (in words) ([1]; compared among 15 molecules): most active; anticancer activity against MDA-MB-436 Cell line (in words) (MDA-MB-436 Cell line; [3]): most active; also recorded: Invitro activity comparable to standard Gefitinib; anticancer activity against MCF-7 Cell line (in words) (MCF-7 Cell line; compared among 15 molecules, listed as M1): most active; also recorded: showing Invitro activity; melting point: 268 to 270 °C; anticancer activity against HOP-62 Cell line (in words) (HOP-62 Cell line; [3]): most active; also recorded: Invitro activity comparable to standard Gefitinib; logP (Log P (Table 3)): 3.02; viability at 0.01 µM [2]: 49.1%; viability at 0.1 µM [2]: 39.1%; viability at 2.5 µM [2]: 29.1%; viability at 5 µM [2]: 15.1%; viability at 10 µM [2]: 10.9%; anticancer activity against A549 Cell line (in words) ([2]; compared among 15 molecules and with Gefitinib): most active
COc1ccc(Nc2nc(N)c(-c3nc4ccccc4[nH]3)s2)cc1 [Molecule S4-M2, 5-(1H-benzo[d]imidazol-2-yl)-N^2-(4-methoxyphenyl)thiazole-2,4-diamine]	93%	86.5%	79.5%	68.5%	55.5%	113%	108%	95.5%	93.5%	90.5%	97%	95.5%	95.5%	90.5%	84.5%	99%	93.5%	85.5%	77.5%	75.5%	melting point: 224 to 226 °C; logP (Log P (Table 3)): 2.11; viability at 0.01 µM [2]: 95%; viability at 0.1 µM [2]: 89.5%; viability at 2.5 µM [2]: 75.5%; viability at 5 µM [2]: 60.5%; viability at 10 µM [2]: 51.5%
COc1ccc(Nc2nc(N)c(-c3nc4c(C)cccc4[nH]3)s2)cc1 [Molecule S4-M15, N^2-(4-methoxyphenyl)-5-(4-methyl-1H-benzo[d]imidazol-2-yl)thiazole-2,4-diamine]	89.1%	82.9%	71.7%	59.7%	48.3%	96.1%	94.9%	90.7%	81.7%	71.3%	92.1%	89.9%	75.7%	70.7%	61.3%	104%	98.7%	92.7%	81.7%	77.3%	viability at 0.01 µM [2]: 93.1%; viability at 0.1 µM [2]: 79.7%; viability at 2.5 µM [2]: 68.3%; viability at 5 µM [2]: 59.3%; viability at 10 µM [2]: 49.3%
